{
  "source": "patent US20140271742A1",
  "about": "“SKIN TANNING USING PEPTIDES AND OTHER COMPOSITIONS” (priority 2013, published 2014)",
  "key": {"[1]": {"test": "Laser Doppler circulation in five human subjects, NO creams and controls (Example 8)", "type": "in vivo", "conditions": "positive control formulation containing 0.1% methyl nicotinate", "text": "This example illustrates delivery of nitric oxide formulations to five human subjects, using procedures and formulations similar to those discussed in Example 5. Each person served as their own control for the testing. A Moor Instruments Laser Doppler was used to determine circulation. […] The formulations used produce positive, almost immediate results when applied to the skin which, in these studies, was manifested by vasodilatation of the cutaneous vascular system.\nFor each subject, the following creams were applied: a negative control formulation (containing no NO), 0.010 gram of a 10,000 ppm NO formulation, 0.020 gram of a 10,000 ppm NO formulation, and a positive control formulation containing 0.1% methyl nicotinate. The formulations were prepared using procedures similar to those discussed in Example 1."}, "[2]": {"test": "Laser Doppler capillary blood flow in humans, 10,000 ppm NO in closed Hilltop chamber (Example 5)", "type": "in vivo, human", "conditions": "applied to the skin at 1/10% in alcohol", "text": "The formulation used in these studies contained nitric oxide dispersed in a lipid matrix. […] Nitric oxide is a very rapid acting molecule, and these studies used a system that employed laser Doppler with a covered chamber. The formulation was placed into the chamber and then attached to the skin by an adhesive layer on the covering. This provided a stable measuring device as determined by multiple normal evaluations of the capillary blood flow without treatment of nitric oxide.\nA known positive control, methyl nicotinate, was applied to the skin at a concentration of 1/10% in alcohol. […] The vascular dynamics are such that when the blood vessels dilate physical parameters follow Bernoulli's law. This states that as one increases the diameter of a tube containing a liquid to flow will increase but the pressure and the speed of the liquid will decrease. The laser Doppler device accurately measured these parameters.\nThe test product was labeled as 10,000 ppm NO (nitric oxide). The study participants had 100 mg of the test product applied in a closed Hilltop chamber on the forearm. […]\nA Moor Instruments DRT4 Laser Doppler Blood Flow Monitor (Devon, England) was used in these studies. The laser Doppler technique measured blood flow in the microcapillaries of the skin that are close to the skin surface and the blood flow in underlying arterioles and venules that help to regulate skin temperature. […]"}},
  "data": [
    {"smiles": "COC(=O)c1cccnc1", "note": "[methyl nicotinate]", "values": [
      {"measurement": "Vasodilatation (laser Doppler)", "setting": "[1]", "value": "vasodilatation was observed"},
      {"measurement": "Laser Doppler response of positive control", "setting": "[2]", "value": "rapid response typical of the vasodilator"}
    ]}
  ]
}
